Experimental data reported in patent US9617258B2, “Pyrrolo[2,3-d]pyrimidinyl, pyrrolo[2,3-b]pyrazinyl and pyrrolo[2,3-d]pyridinyl acrylamides” (Pfizer Inc., priority 2013, dated 2017).

Assays:
[1] = target: T1, JAK3 enzyme (Homo sapiens (Human), UniProt P52333); experiment: JAK Caliper enzyme assay at 1 mM ATP; format: biochemical
Experimental: (§1) JAK Caliper Enzyme Assay at 4 μM or 1 mM ATP
(§2) Test article was solubilized in dimethyl sulfoxide (DMSO) to a stock concentration of 30 mM. An 11-point half log dilution series was created in DMSO with a top concentration of 600 μM. […] The compound plates were diluted 1 to 60 resulting in a top final assay compound concentration of 10 μM and a 2% DMSO concentration.
(§3) Test article and assay controls were added to a 384-well plate. Reaction mixtures contained 20 mM HEPES, pH 7.4, 10 mM magnesium chloride, 0.01% bovine serum albumin (BSA), 0.0005% Tween 20, 4 μM or 1 mM ATP and 1 μM peptide substrate. […] The assays were initiated by the addition 1 nM JAK3 enzyme and were incubated at room temperature 75 minutes for JAK3. Enzyme concentrations and incubation times were optimized for each new enzyme preps and were modified slightly over time to ensure 20%-30% phosphorylation. The assays were stopped with a final concentration of 10 mM EDTA, 0.1% Coating Reagent and 100 mM HEPES, pH=7.4. The assay plates were placed on a Caliper Life Science Lab Chip 3000 (LC3000) instrument, and each well was sampled using appropriate separation conditions to measure the unphosphorylated and phosphorylated peptide.

[2] = target: T1, JAK3 enzyme; experiment: JAK Caliper enzyme assay at 4 μM ATP; format: biochemical
Experimental: as §1, §2, §3

[3] = Stability of JAK3 covalent inhibitors in human whole blood; format: in vitro ADME; details: both sexes, whole blood, 37° C., read-out: Human blood stability t1/2;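 note: parent compound remaining over incubation time quantified by LC-MS/MS as peak area ratio against an internal standard, using pooled K2-EDTA blood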
Description: Stability of JAK3 Covalent Inhibitors in Rat and Human Whole Blood
Rat blood was collected from 3 male Sprague-Dawley rats (200-250 g, Charles River Laboratories) and pooled for each study. Human blood was collected from one male and one female healthy subjects at the Occupational Health & Wellness Center at Pfizer, Groton, CT and pooled for each study. Both rat and human blood was collected freshly into K2-EDTA tubes and kept on ice. An aliquot of the blood was transferred to microtubes and pre-warmed for 10 min at 37° C. using a heat block. […] An aliquot of the incubation mixture was removed at designated time points during the course of the incubation, mixed with an aliquot of acetonitrile containing an internal standard, vortexed and centrifuged. The resulting supernatants were removed and subjected to LC-MS/MS analyses to determine parent compound concentrations. Peak area ratios of the parent compound vs the internal standard were used to determine the % of parent compound remaining vs incubation time.

T1 sequence (P52333 whole entry, species assumed): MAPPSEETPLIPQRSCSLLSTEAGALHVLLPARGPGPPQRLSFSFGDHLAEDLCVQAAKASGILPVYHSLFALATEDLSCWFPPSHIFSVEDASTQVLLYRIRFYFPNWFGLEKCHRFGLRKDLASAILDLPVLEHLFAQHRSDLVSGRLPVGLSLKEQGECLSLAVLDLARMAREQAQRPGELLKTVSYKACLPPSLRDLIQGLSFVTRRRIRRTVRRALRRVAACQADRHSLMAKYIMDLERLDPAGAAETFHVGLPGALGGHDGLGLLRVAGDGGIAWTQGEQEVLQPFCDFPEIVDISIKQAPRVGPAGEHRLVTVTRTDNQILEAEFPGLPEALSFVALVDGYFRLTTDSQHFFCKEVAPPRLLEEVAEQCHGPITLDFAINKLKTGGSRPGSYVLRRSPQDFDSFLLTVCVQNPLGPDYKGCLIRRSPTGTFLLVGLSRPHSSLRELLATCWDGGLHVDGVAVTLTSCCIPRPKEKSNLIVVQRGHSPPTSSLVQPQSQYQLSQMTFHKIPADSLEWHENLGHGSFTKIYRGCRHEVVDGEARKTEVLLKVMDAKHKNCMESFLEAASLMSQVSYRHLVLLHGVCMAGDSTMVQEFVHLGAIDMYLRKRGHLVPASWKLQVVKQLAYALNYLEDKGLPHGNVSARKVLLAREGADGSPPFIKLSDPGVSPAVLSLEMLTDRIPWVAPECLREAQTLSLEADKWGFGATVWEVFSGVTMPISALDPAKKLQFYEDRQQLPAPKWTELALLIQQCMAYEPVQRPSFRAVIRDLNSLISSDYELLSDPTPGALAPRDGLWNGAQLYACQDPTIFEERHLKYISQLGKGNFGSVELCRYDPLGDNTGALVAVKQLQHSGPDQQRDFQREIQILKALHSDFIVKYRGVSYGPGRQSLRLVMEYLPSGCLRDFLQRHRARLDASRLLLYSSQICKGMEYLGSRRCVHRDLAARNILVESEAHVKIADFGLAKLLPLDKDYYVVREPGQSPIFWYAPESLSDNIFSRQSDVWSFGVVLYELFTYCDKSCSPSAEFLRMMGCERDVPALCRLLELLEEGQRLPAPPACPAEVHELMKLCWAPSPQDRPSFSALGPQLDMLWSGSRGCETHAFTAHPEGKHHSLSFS

SMILES | half-life at 1 μM [3] [h] | further results
C=CC(=O)N1CC[C@@H](Nc2cnc3[nH]ccc3n2)C1 [Example 335, (R)-1-(3-((5H-Pyrrolo[2,3-b]pyrazin-2-yl)amino)pyrrolidin-1-yl)prop-2-en-1-one] |  | IC50 ([1]; read-out: JAK3 (1 mM ATP) IC50): > 10000 nM
C=CC(=O)N1C[C@H](Nc2ncnc3[nH]ccc23)[C@H]2CC[C@@H]1C2 [Example 127, 1-((1R,4R,5S)-4-(7H-pyrrolo[2,3-d]pyrimidin-4-ylamino)-2-azabicyclo[3.2.1]octan-2-yl)prop-2-en-1-one] |  | IC50 ([2]; read-out: JAK3 (4 μM ATP) IC50): 190 nM; IC50 ([1]; read-out: JAK3 (1 mM ATP) IC50): > 10000 nM
C=CC(=O)N1CC[C@H](O)[C@@H](Nc2ncnc3[nH]ccc23)C1 (racemic) [Example 113, rac-1-[(3S,4S)-4-Hydroxy-3-(7H-pyrrolo[2,3-d]pyrimidin-4-ylamino)piperidin-1-yl]prop-2-en-1-one] |  | IC50 [2]: 42.4 nM; IC50 [1]: 8480 nM
C=CC(=O)N1CCC(Nc2cnc3[nH]cc(C(=O)N[C@@H]4C[C@H]4C(F)(F)F)c3n2)CC1 [Example 233, 2-[(1-acryloylpiperidin-4-yl)amino]-N-[(1R,2R)-2-(trifluoromethyl)cyclopropyl]-5H-pyrrolo[2,3-b]pyrazine-7-carboxamide] |  | IC50 ([2]; read-out: JAK3 (4 μM ATP) IC50): 0.2 nM; IC50 ([1]; read-out: JAK3 (1 mM ATP) IC50): 20.6 nM
C=CC(=O)c1c[nH]c2ncnc(N[C@H]3CN(C(=O)C=C)CC[C@H]3F)c12 [Example 120, 1-(4-{[(3S,4R)-1-Acryloyl-4-fluoropiperidin-3-yl]amino}-7H-pyrrolo[2,3-d]pyrimidin-5-yl)prop-2-en-1-one] |  | IC50 ([1]; read-out: JAK3 (1 mM ATP) IC50): > 10000 nM
O=C(C1=CCC1)N1CC[C@@H]2CCN(c3ncnc4[nH]ccc34)[C@@H]2C1 [Example 86, cyclobut-1-en-1-yl[(3aS,7aS)-1-(7H-pyrrolo[2,3-d]pyrimidin-4-yl)octahydro-6H-pyrrolo[2,3-c]pyridin-6-yl]methanone] | > 6 | IC50 ([2]; read-out: JAK3 (4 μM ATP) IC50): 149 nM; IC50 ([1]; read-out: JAK3 (1 mM ATP) IC50): > 10000 nM
C/C=C/C(=O)N1CC[C@@H]2CCN(c3ncnc4[nH]ccc34)[C@@H]2C1 [Example 84, (2E)-1-[(3aS,7aS)-1-(7H-pyrrolo[2,3-d]pyrimidin-4-yl)octahydro-6H-pyrrolo[2,3-c]pyridin-6-yl]but-2-en-1-one] |  | IC50 ([2]; read-out: JAK3 (4 μM ATP) IC50): 727 nM; IC50 ([1]; read-out: JAK3 (1 mM ATP) IC50): > 10000 nM
C=CC(=O)N1CCC[C@@H](Nc2ncnc3[nH]cc(-c4cccnc4)c23)C1 [Example 26, 1-[(3R)-3-{[5-(pyridin-3-yl)-7H-pyrrolo[2,3-d]pyrimidin-4-yl]amino}piperidin-1-yl]prop-2-en-1-one] | > 6 | 
CN(C)C/C=C/C(=O)N1CC[C@@H]2CCN(c3ncnc4[nH]ccc34)[C@@H]2C1 [Example 82, (2E)-4-(dimethylamino)-1-[(3aS,7aS)-1-(7H-pyrrolo[2,3-d]pyrimidin-4-yl)octahydro-6H-pyrrolo[2,3-c]pyridin-6-yl]but-2-en-1-one] | > 6 | 
C=CC(=O)N1C[C@@H](O)C[C@@H](Nc2ncnc3[nH]ccc23)C1 [Example 17, 1-((3R,5S)-3-(7H-Pyrrolo[2,3-d]pyrimidin-4-ylamino)-5-hydroxypiperidin-1-yl)prop-2-en-1-one] | > 5.17 | 
C=CC(=O)N1CCC[C@@H](Nc2ncnc3[nH]cc(-c4ccc(C)nc4)c23)C1 [Example 66, (R)-1-(3-((5-(6-methylpyridin-3-yl)-7H-pyrrolo[2,3-d]pyrimidin-4-yl)amino)piperidin-1-yl)prop-2-en-1-one] | > 6 | 
C=CC(=O)N1CC(Nc2ncnc3[nH]ccc23)CCC1(C)C (stereo not drawn) [Example 67, 1-(5-((7H-Pyrrolo[2,3-d]pyrimidin-4-yl)amino)-2,2-dimethylpiperidin-1-yl)prop-2-en-1-one] | > 6 | 
C=CC(=O)N1C[C@H](Nc2ncnc3[nH]ccc23)CC[C@H]1CC [Example 124, 1-[(2R,5R)-2-Ethyl-5-(7H-pyrrolo[2,3-d]pyrimidin-4-ylamino)piperidin-1-yl]prop-2-en-1-one] |  | IC50 ([2]; read-out: JAK3 (4 μM ATP) IC50): 265 nM; IC50 ([1]; read-out: JAK3 (1 mM ATP) IC50): > 10000 nM
C=CC(=O)N1C[C@H](C)C[C@@H](Nc2ncnc3[nH]ccc23)C1 [Example 74, 1-[(3R,5R)-3-Methyl-5-(7H-pyrrolo[2,3-d]pyrimidin-4-ylamino)piperidin-1-yl]prop-2-en-1-one] | 1.72 | 
C=CC(=O)N1C[C@@H](C)C[C@H](Nc2ncnc3[nH]ccc23)C1 [Example 75, 1-((3S,5S)-3-((7H-Pyrrolo[2,3-d]pyrimidin-4-yl)amino)-5-methylpiperidin-1-yl)prop-2-en-1-one] | > 6 | 
C=CC(=O)N1C[C@@H](C#N)C[C@@H](Nc2ncnc3[nH]ccc23)C1 [Example 58, (3S,5R)-5-((7H-pyrrolo[2,3-d]pyrimidin-4-yl)amino)-1-acryloylpiperidine-3-carbonitrile] | 0.583 | 
C=CC(=O)N1CC(Nc2ncnc3[nH]ccc23)CCC1CO (stereo not drawn) [Example 52, 1-[2-(Hydroxymethyl)-5-(7H-pyrrolo[2,3-d]pyrimidin-4-ylamino)piperidin-1-yl]prop-2-en-1-one] | > 5.97 | 
C=CC(=O)N1C[C@H](Nc2ncnc3[nH]ccc23)C[C@H](N(C)C)C1 [Example 57, 1-((3R,5S)-3-((7H-Pyrrolo[2,3-d]pyrimidin-4-yl)amino)-5-(dimethylamino)piperidin-1-yl)prop-2-en-1-one] | 1.35 | 
C/C=C/C(=O)N1CC[C@@H](O)[C@@H](Nc2ncnc3[nH]ccc23)C1 (racemic) [Example 160, rac-(2E)-1-[(3S,4R)-4-Hydroxy-3-(7H-pyrrolo[2,3-d]pyrimidin-4-ylamino)piperidin-1-yl]but-2-en-1-one] |  | IC50 [2]: > 10000 nM
O=C(/C=C/C(F)(F)F)N1CC[C@@H]2CCN(c3ncnc4[nH]ccc34)[C@@H]2C1 [Example 81, (2E)-4,4,4-trifluoro-1-[(3aS,7aS)-1-(7H-pyrrolo[2,3-d]pyrimidin-4-yl)octahydro-6H-pyrrolo[2,3-c]pyridin-6-yl]but-2-en-1-one] | 0.282 | 
C=CC(=O)N1C[C@@H](F)C[C@@H](Nc2ncnc3[nH]ccc23)C1 [Example 15, 1-((3R,5S)-3-((7H-Pyrrolo[2,3-d]pyrimidin-4-yl)amino)-5-fluoropiperidin-1-yl)prop-2-en-1-one] | 3.87 | 
C=CC(=O)N1C[C@@H](Nc2ncnc3[nH]ccc23)[C@@H]2CC[C@H]1C2 [Example 126, 1-((1S,4S,5R)-4-(7H-pyrrolo[2,3-d]pyrimidin-4-ylamino)-2-azabicyclo[3.2.1]octan-2-yl)prop-2-en-1-one] |  | IC50 ([2]; read-out: JAK3 (4 μM ATP) IC50): 602 nM; IC50 [1]: > 10000 nM

Second part, led by results:

half-life at 1 μM [3] [h] | SMILES | further results
> 6 | C=CC(=O)N1CCC[C@H](Nc2ncnc3[nH]ccc23)[C@H]1C (racemic) [Example 121, rac-1-((2R,3S)-3-((7H-Pyrrolo[2,3-d]pyrimidin-4-yl)amino)-2-methylpiperidin-1-yl)prop-2-en-1-one] | IC50 [2]: 648 nM; IC50 [1]: > 10000 nM
1.23 | C=CC(=O)N1C[C@H](Nc2ncnc3[nH]ccc23)C[C@@H](N(C)C)C1 [Example 88, 1-[(3R,5R)-3-(Dimethylamino)-5-(7H-pyrrolo[2,3-d]pyrimidin-4-ylamino)piperidin-1-yl]prop-2-en-1-one] | 
> 6 | C=CC(=O)N1C[C@@H](Nc2ncnc3[nH]ccc23)CC[C@H]1CO [Example 117, 1-[(2S,5S)-2-(Hydroxymethyl)-5-(7H-pyrrolo[2,3-d]pyrimidin-4-ylamino)piperidin-1-yl]prop-2-en-1-one] | 
1.6 | C=CC(=O)N1CC(Nc2cnc3[nH]cc(C(=O)NC(C)C)c3n2)C1 [Example 188, 2-[(1-acryloylazetidin-3-yl)amino]-N-(propan-2-yl)-5H-pyrrolo[2,3-b]pyrazine-7-carboxamide] | 
> 6 | C=CC(=O)N1CCC(Nc2cnc3[nH]cc(C(=O)NC4CCC4)c3n2)CC1 [Example 280, 2-[(1-acryloylpiperidin-4-yl)amino]-N-cyclobutyl-5H-pyrrolo[2,3-b]pyrazine-7-carboxamide] | 
> 6 | C=CC(=O)N1CCC(Nc2cnc3[nH]cc(C(=O)NCCC#N)c3n2)CC1 [Example 261, 2-[(1-acryloylpiperidin-4-yl)amino]-N-(2-cyanoethyl)-5H-pyrrolo[2,3-b]pyrazine-7-carboxamide] | 
> 6 | C=CC(=O)N1CCC(Nc2cnc3[nH]cc(C(=O)NC4CCC(F)(F)C4)c3n2)CC1 (stereo not drawn) [Example 259, 2-[(1-acryloylpiperidin-4-yl)amino]-N-(3,3-difluorocyclopentyl)-5H-pyrrolo[2,3-b]pyrazine-7-carboxamide] | 
> 6 | C=CC(=O)N1CCC(Nc2cnc3[nH]cc(C(=O)NCCOC)c3n2)CC1 [Example 275, 2-[(1-acryloylpiperidin-4-yl)amino]-N-(2-methoxyethyl)-5H-pyrrolo[2,3-b]pyrazine-7-carboxamide] | 
2.38 | C=CC(=O)N1CC2CCN(c3cnc4[nH]cc(C(=O)NC(C)C)c4n3)C2C1 (stereo not drawn) [Example 178, 2-(5-acryloylhexahydropyrrolo[3,4-b]pyrrol-1(2H)-yl)-N-(propan-2-yl)-5H-pyrrolo[2,3-b]pyrazine-7-carboxamide] | 
> 5.85 | C#CCNC(=O)c1c[nH]c2ncc(NC3CCN(C(=O)C=C)CC3)nc12 [Example 343, 2-((1-Acryloylpiperidin-4-yl)amino)-N-(prop-2-yn-1-yl)-5H-pyrrolo[2,3-b]pyrazine-7-carboxamide] | 
